According to patent publication US20240254111A1, “SUBSTITUTED BENZAMIDES AS HERBICIDES” (SYNGENTA CROP PROTECTION AG, priority 2021, published 2024):

Tests used:
Assay type in all cases: in vivo
[1] = test system: Amaranthus retoflexus (AMARE); experiment: Glasshouse pre-/post-emergence herbicide test, Table B2; conditions: 130 g/h, evaluated after 13 days
Method: (§1) Seeds of a variety of test species are sown in standard soil in pots Amaranthus retoflexus (AMARE), Setaria faberi (SETFA), Echinochloa crus-galli (ECHCG), Ipomoea hederacea (IPOHE)). After cultivation for one day (pre-emergence) or after 8 days cultivation (post-emergence) under controlled conditions in a glasshouse (at 24/16° C., day/night; 14 hours light; 65% humidity), the plants are sprayed with an aqueous spray solution derived from the formulation of the technical active ingredient in acetone/water (50:50) solution containing 0.5% Tween 20 (polyoxyethelyene sorbitan monolaurate, CAS RN 9005-64-5). Compounds are applied at 130 g/h unless otherwise indicated. The test plants are then grown in a glasshouse under controlled conditions in a glasshouse (at 24/16° C., day/night; 14 hours light; 65% humidity) and watered twice daily. After 13 days for pre and post-emergence, the test is evaluated for the percentage damage caused to the plant. The biological activities are shown in the following table on a five-point scale (5=80-100%; 4=60-79%; 3=40-59%; 2=20-39%; 1=0-19%).

[2] = test system: Echinochloa crus-galli (ECHCG); experiment: as above; conditions: 130 g/h, evaluated after 13 days
Method: as §1

[3] = test system: Ipomoea hederacea (IPOHE); experiment: as above; conditions: 130 g/h, evaluated after 13 days
Method: as §1

[4] = test system: Setaria faberi (SETFA); experiment: as above; conditions: 130 g/h, evaluated after 13 days
Method: as §1

[5] = test system: Oryza sativa (ORYSA, Rice); experiment: Glasshouse herbicide test, Table B1 (crop damage); conditions: POST Application, evaluated after 14 days
[6] = test system: Euphorbia heterophylla (EPHHIL); experiment: Glasshouse herbicide test, Table B1; conditions: POST Application, evaluated after 14 days
[7] = test system: Sinapis arvensis (SINAR); experiment: Glasshouse herbicide test, Table B1; conditions: POST Application, evaluated after 14 days
[8] = test system: Panicum miliaceum (PANMVI); experiment: Glasshouse herbicide test, Table B1; conditions: POST Application, evaluated after 14 days

| Structure (SMILES) | AMARE percentage damage, five-point scale ([1]; POST Application) | AMARE percentage damage, five-point scale ([1]; PRE Application) | ECHCG percentage damage, five-point scale ([2]; POST Application) | ECHCG percentage damage, five-point scale ([2]; PRE Application) | IPOHE percentage damage, five-point scale ([3]; POST Application) | IPOHE percentage damage, five-point scale ([3]; PRE Application) | SETFA percentage damage, five-point scale ([4]; POST Application) | SETFA percentage damage, five-point scale ([4]; PRE Application) | ORYSA damage to plant (100=total damage; 0=no damage) ([5]; rate 30 g/ha) | ORYSA damage to plant (100=total damage; 0=no damage) ([5]; rate 130 g/ha) | ORYSA damage to plant (100=total damage; 0=no damage) ([5]; rate 250 g/ha) | EPHHL damage to plant (100=total damage; 0=no damage) ([6]; rate 30 g/ha) | EPHHL damage to plant (100=total damage; 0=no damage) ([6]; rate 130 g/ha) | EPHHL damage to plant (100=total damage; 0=no damage) ([6]; rate 250 g/ha) | SINAR damage to plant (100=total damage; 0=no damage) ([7]; rate 30 g/ha) | SINAR damage to plant (100=total damage; 0=no damage) ([7]; rate 130 g/ha) | SINAR damage to plant (100=total damage; 0=no damage) ([7]; rate 250 g/ha) | PANMI damage to plant (100=total damage; 0=no damage) ([8]; rate 30 g/ha) | PANMI damage to plant (100=total damage; 0=no damage) ([8]; rate 130 g/ha) | PANMI damage to plant (100=total damage; 0=no damage) ([8]; rate 250 g/ha) |
| --- | --- | --- | --- | --- | --- | --- | --- | --- | --- | --- | --- | --- | --- | --- | --- | --- | --- | --- | --- | --- |
| Cn1nnnc1NC(=O)c1ccc(OC(F)F)c(NC(=O)C2(C)CCOCC2)c1Cl [Compound 1.009] | 5 (5=80-100%) | 5 (5=80-100%) | 4 (4=60-79%) | 1 (1=0-19%) | 4 (4=60-79%) | 2 (2=20-39%) | 2 (2=20-39%) | 1 (1=0-19%) | – | – | – | – | – | – | – | – | – | – | – | – |
| Cn1nnnc1NC(=O)c1ccc(OC(F)(F)F)c(NC(=O)C2(C)CCOCC2)c1Cl [Compound 1.007] | 5 (5=80-100%) | 5 (5=80-100%) | 5 (5=80-100%) | 2 (2=20-39%) | – | 3 (3=40-59%) | 5 (5=80-100%) | 1 (1=0-19%) | – | – | – | – | – | – | – | – | – | – | – | – |
| Cn1nnnc1NC(=O)c1ccc(OC(F)F)c(NC(=O)C2CCOCC2)c1Cl [Compound 1.002, N-[2-chloro-6-(difluoromethoxy)-3-[(1-methyltetrazol-5-yl)carbamoyl]phenyl]tetrahydropyran-4-carboxamide] | 5 (5=80-100%) | 5 (5=80-100%) | 5 (5=80-100%) | 5 (5=80-100%) | 4 (4=60-79%) | 5 (5=80-100%) | 5 (5=80-100%) | 5 (5=80-100%) | 0 | 10 | 20 | 90 | 100 | 100 | 90 | 100 | 100 | 90 | 100 | 100 |
| Cn1nnnc1NC(=O)c1ccc(OC(F)(F)F)c(NC(=O)C2CCOCC2)c1Cl [Compound 1.001, N-[2-chloro-3-[(1-methyltetrazol-5-yl)carbamoyl]-6-(trifluoromethoxy)phenyl]-tetrahydropyran-4-carboxamide] | 5 (5=80-100%) | 5 (5=80-100%) | 5 (5=80-100%) | 5 (5=80-100%) | 5 (5=80-100%) | 4 (4=60-79%) | 5 (5=80-100%) | 5 (5=80-100%) | 0 | 0 | 0 | 100 | 100 | 100 | 100 | 100 | 100 | 90 | 100 | 100 |
| CCn1nnnc1NC(=O)c1ccc(OC(F)F)c(NC(=O)C2CCOCC2)c1Cl [Compound 1.012] | 5 (5=80-100%) | 4 (4=60-79%) | 5 (5=80-100%) | 5 (5=80-100%) | 4 (4=60-79%) | 4 (4=60-79%) | 5 (5=80-100%) | 3 (3=40-59%) | – | – | – | – | – | – | – | – | – | – | – | – |
| Cc1c(C(=O)Nc2nnnn2C)ccc(OC(F)(F)F)c1NC(=O)C1CCOCC1 [Compound 1.010] | 4 (4=60-79%) | 5 (5=80-100%) | 5 (5=80-100%) | 3 (3=40-59%) | 4 (4=60-79%) | 2 (2=20-39%) | 5 (5=80-100%) | 2 (2=20-39%) | – | – | – | – | – | – | – | – | – | – | – | – |
| CCn1nnnc1NC(=O)c1ccc(OC(F)(F)F)c(NC(=O)C2CCOCC2)c1Cl [Compound 1.011] | 5 (5=80-100%) | 5 (5=80-100%) | 5 (5=80-100%) | 5 (5=80-100%) | 5 (5=80-100%) | 5 (5=80-100%) | 5 (5=80-100%) | 5 (5=80-100%) | – | – | – | – | – | – | – | – | – | – | – | – |
